# According to article PMC4604124, “In Vitro Characterization of the Pharmacological Properties of the Anti-Cancer Chelator, Bp4eT, and Its Phase I Metabolites” (PLoS ONE, 2015):
# Where “and” joins values, the source holds several entries; their conditions need not be identical. Equal entries are not always repeated. Where two headings read alike, the source gives them in different places.
# Key:
# [1] = tested on: A549 human lung adenocarcinoma cells; test: MTT cytotoxicity assay, A549 cells; type: cell-based; settings: for IC50: MTT
# Procedure: (§1) For cytotoxicity experiments, cancer cells were seeded at a density of 5,000 (MCF-7), 10,000 (HL-60) or 2,000 cells/well (HCT116 and A549) in 96-well plates (TPP) for 24 h/37°C prior to the addition of examined agents. The non-cancerous cells, 3T3 and H9c2 cells, were cultured for 24 h/37°C in 96-well plates at a density of 10,000 cells/well, the medium was then changed to serum- and pyruvate-free DMEM (Sigma-Aldrich) and incubated with the cells for another 24 h/37°C. The cytotoxic effects of Bp4eT and its metabolites were studied at different concentrations after a 72 h/37°C incubation. In order to aid the dissolution of the lipophilic ligands, 0.1% dimethyl sulfoxide (v/v) (DMSO; Sigma-Aldrich) was present in the culture medium of all groups. At this concentration, DMSO had no effect on cellular proliferation or viability.
# (§2) The viability of cells were determined using an MTT assay (Sigma-Aldrich) according to previously established methods. The optical density of soluble MTT was measured at λ = 570 nm, subtracting the λ = 690 nm background using a Tecan Infinite 200M plate reader (Tecan Group, Männedorf, Switzerland). The viability or proliferation of experimental groups was expressed as a percentage of the untreated controls (100%).
# (§3) SigmaStat for Windows 3.5 (Systat Software, San Jose, CA, USA) statistical software package was utilized to analyze results. The data are expressed as the mean ± SD of a given number of experiments. Statistical significance was determined using a one-way ANOVA with a Bonferroni post-hoc test or Student’s t-test. The results were considered to be statistically significant when p < 0.05. The IC50 values were calculated using CalcuSyn 2.0 software (Biosoft, Cambridge, UK). Cell cycle analysis was evaluated using MultiCycle AV Software (Phoenix Flow Systems, San Diego, CA, USA).
# [2] = tested on: MCF-7 cells prelabeled with 59Fe2-transferrin; test: Mobilization (efflux) of cellular 59Fe; type: cell-based, human; set-up: Efflux 59Fe / Efflux 59Fe, Ave: unit not given here
# Description: Human transferrin (Sigma) was labeled with ^56Fe or ^59Fe (PerkinElmer, Massachusetts, USA) to produce ^56Fe2-transferrin or ^59Fe2-transferrin (^59Fe2-Tf), respectively, with a final specific activity of 500 pCi/pmol Fe, as previously described. Unbound ^59Fe was removed by exhaustive vacuum dialysis against a large excess of 0.15 M NaCl buffered to pH 7.4 with 1.4% NaHCO3 by standard methods.
# To examine the ability of studied compounds to mobilize cellular ^59Fe from MCF-7 cells, iron efflux experiments were performed using established techniques. In brief, after pre-labeling confluent MCF-7 cells on 6-well plates with 0.75 μM ^59Fe2-Tf for 3 h/37°C, the cells were washed four times with ice-cold PBS and then subsequently incubated with 25 μM of Bp4eT or its metabolites for 3 h/37°C. The overlying medium containing released ^59Fe was then decanted from the cells. Radioactivity was measured in both the cells and the supernatant using a γ-scintillation counter (Wallac Wizard 3, Turku, Finland).
# [3] = tested on: caspases 3/7; test: Caspase activity, luminescent kit, caspases 3/7; type: cell-based, human; settings: for kaspáza (3) a 7, raw signal / kaspáza (3) a 7, signal / viabilita: individual experiments by date; for kaspáza (3) a 7, raw signal, průměry / kaspáza (3) a 7, % kontroly / kaspáza (3) a 7, signal / viabilita, průměry: mean; for kaspáza (3) a 7, % kontroly / kaspáza (3) a 7, signal / viabilita / kaspáza (3) a 7, signal / viabilita, průměry: normalised to viability
# Procedure: To assess the effect of the compounds on caspase activity, MCF-7 cells were incubated with 100 nM Bp4eT or its metabolites for 3, 24 or 72 h/37°C in 96-well plates, as described above. The cells were then lysed by adding 100 μL of cold lysis buffer (100 mM HEPES, 10 mM CHAPS, 10 mM D-L-dithiothreitol, pH 7.4) to 100 μL of medium in each well. Lysates were immediately frozen at -80°C. Thawed lysates were used to assess caspase activity using luminescent kits for caspases 3/7, 8 and 9 (Promega, Madison, WI, USA). The luminescence was measured using the Tecan Infinite 200M plate reader. Caspase activity in the experimental groups was corrected according to the cellular viability of each group and expressed as a percentage of activity of the untreated control (100%).
# [4] = tested on: MCF-7 human breast adenocarcinoma cells; test: MTT cytotoxicity assay, MCF-7 cells; type: cell-based; settings: for IC50: MTT, read-out: IC50
# Procedure: as §1, §2, §3
smiles,measurement,setting,value
"CCNC(=O)NN=C(c1ccccc1)c1ccccn1 [Z-Bp4eS, 2-benzoylpyridine 4-ethylsemicarbazone]","Therapeutic index, IC50 non-cancerous cells / IC50 neoplastic cells",[1]; 3T3/A549,>1.9
same,IC50,"[1]; A549, 72 h/37°C, mean ± SD, n ≥ 4",536 ± 147 µM
same,"MTT, relative to control (0 = 100)","[1]; A549, 2 000 b/j, 1 μM, průměr (mean), sheet Z-Bp4eS",94.73
same,"MTT, relative to control (0 = 100)","[1]; A549, 2 000 b/j, 1 μM, single experiment (date), sheet Z-Bp4eS",96.1035 and 96.1124 and 90.1392 and 98.3089 and 94.9198 and 92.7894
same,"MTT, relative to control (0 = 100)","[1]; A549, 2 000 b/j, 3 μM, průměr (mean), sheet Z-Bp4eS",94.38
same,"MTT, relative to control (0 = 100)","[1]; A549, 2 000 b/j, 3 μM, single experiment (date), sheet Z-Bp4eS",93.9771 and 96.8848 and 87.0494 and 97.8403 and 95.4397 and 95.0776
same,"MTT, relative to control (0 = 100)","[1]; A549, 2 000 b/j, 10 μM, průměr (mean), sheet Z-Bp4eS",94.55
same,"MTT, relative to control (0 = 100)","[1]; A549, 2 000 b/j, 10 μM, single experiment (date), sheet Z-Bp4eS",94.0202 and 95.9602 and 87.4767 and 100.017 and 95.1483 and 94.6861
same,"MTT, relative to control (0 = 100)","[1]; A549, 2 000 b/j, 30 μM, průměr (mean), sheet Z-Bp4eS",91.68
same,"MTT, relative to control (0 = 100)","[1]; A549, 2 000 b/j, 30 μM, single experiment (date), sheet Z-Bp4eS",90.8876 and 93.251 and 83.1786 and 91.8017 and 95.6624 and 95.2834
same,"MTT, relative to control (0 = 100)","[1]; A549, 2 000 b/j, 100 μM, průměr (mean), sheet Z-Bp4eS",84.34
same,"MTT, relative to control (0 = 100)","[1]; A549, 2 000 b/j, 100 μM, single experiment (date), sheet Z-Bp4eS",76.9185 and 86.3352 and 79.6865 and 86.589 and 88.5447 and 87.9645
same,"MTT, relative to control (0 = 100)","[1]; A549, 2 000 b/j, 300 μM, průměr (mean), sheet Z-Bp4eS",74.88
same,"MTT, relative to control (0 = 100)","[1]; A549, 2 000 b/j, 300 μM, single experiment (date), sheet Z-Bp4eS",67.4475 and 78.3776 and 76.2041 and 77.4903
same,"MTT, relative to control (0 = 100)","[1]; A549, 2 000 b/j, 1000 μM, průměr (mean), sheet Z-Bp4eS",26.69
same,"MTT, relative to control (0 = 100)","[1]; A549, 2 000 b/j, 1000 μM, single experiment (date), sheet Z-Bp4eS",18.2318 and 35.0023 and 34.1521 and 19.3887
same,IC50,"[1]; A549, 2 000 b/j, single experiment (date), sheet Z-Bp4eS",676 µM and 639 µM and 464 µM
same,"Therapeutic index, IC50 non-cancerous cells / IC50 neoplastic cells",[1]; H9c2/A549,0.6
same,IC50,"[1]; Homo sapiens, A549, A549, 2 000 b/j, průměr (mean), sheet Z-Bp4eS",536 µM
same,IC50,"[1]; Homo sapiens, A549, A549, 2 000 b/j, single experiment (date), sheet Z-Bp4eS",364 µM
same,"Efflux 59Fe, Ave",[2]; average of all replicates,3.856
same,Efflux 59Fe,[2]; single replicate (three per date),5.4747 and 4.265 and 4.3539 and 3.0981 and 3.2068 and 3.9182 and 3.1551 and 3.9954 and 3.2369
same,"kaspáza (3) a 7, raw signal",[3]; 3 hodiny,1797.5 and 1540 and 1728.5 and 1382
same,"kaspáza (3) a 7, raw signal, průměry",[3]; 3 hodiny,1612
same,"kaspáza (3) a 7, % kontroly",[3]; 3 hodiny,100.57 % kontroly
same,"kaspáza (3) a 7, signal / viabilita",[3]; 3 hodiny,18.4535 and 15.81 and 17.7452 and 14.1879
same,"kaspáza (3) a 7, signal / viabilita, průměry",[3]; 3 hodiny,16.5491
same,"kaspáza (3) a 7, raw signal",[3]; 24 hodin,2520 and 2115 and 2668.5 and 2356.5
same,"kaspáza (3) a 7, raw signal, průměry",[3]; 24 hodin,2415
same,"kaspáza (3) a 7, % kontroly",[3]; 24 hodin,106.11 % kontroly
same,"kaspáza (3) a 7, signal / viabilita",[3]; 24 hodin,25.3376 and 21.2655 and 26.8307 and 23.6936
same,"kaspáza (3) a 7, signal / viabilita, průměry",[3]; 24 hodin,24.2818
same,"kaspáza (3) a 7, raw signal",[3]; 72 hodin,7018 and 6964.5 and 7418.5 and 7469
same,"kaspáza (3) a 7, raw signal, průměry",[3]; 72 hodin,7217.5
same,"kaspáza (3) a 7, % kontroly",[3]; 72 hodin,104.65 % kontroly
same,"kaspáza (3) a 7, signal / viabilita",[3]; 72 hodin,75.0267 and 74.4548 and 79.3083 and 79.8482
same,"kaspáza (3) a 7, signal / viabilita, průměry",[3]; 72 hodin,77.1595
same,"Therapeutic index, IC50 non-cancerous cells / IC50 neoplastic cells",[4]; 3T3/MCF-7,>5.1
same,"Therapeutic index, IC50 non-cancerous cells / IC50 neoplastic cells",[4]; H9c2/MCF-7,1.7
same,IC50,"[4]; MCF-7, 72 h/37°C, mean ± SD, n ≥ 4",198 ± 20.9 µM
same,IC50,"[4]; MCF-7, 5 000 b/j, průměr (mean)",198 µM
same,IC50,"[4]; MCF-7, 5 000 b/j, single experiment (by date)",185 µM and 224 µM and 177 µM and 205 µM
same,"MTT, value relative to 0 μM = 100","[4]; MCF-7, 5 000 b/j, koncentrace 1 μM, průměr (mean)",93.54
same,"MTT, value relative to 0 μM = 100","[4]; MCF-7, 5 000 b/j, koncentrace 1 μM, single experiment (by date)",102.478 and 93.2821 and 90.3792 and 88.0305
same,"MTT, value relative to 0 μM = 100","[4]; MCF-7, 5 000 b/j, koncentrace 3 μM, průměr (mean)",89.98
same,"MTT, value relative to 0 μM = 100","[4]; MCF-7, 5 000 b/j, koncentrace 3 μM, single experiment (by date)",104.08 and 86.4853 and 85.3702 and 83.9685
same,"MTT, value relative to 0 μM = 100","[4]; MCF-7, 5 000 b/j, koncentrace 10 μM, průměr (mean)",90.26
same,"MTT, value relative to 0 μM = 100","[4]; MCF-7, 5 000 b/j, koncentrace 10 μM, single experiment (by date)",95.2561 and 95.1363 and 88.6166 and 84.693 and 87.5852
same,"MTT, value relative to 0 μM = 100","[4]; MCF-7, 5 000 b/j, koncentrace 30 μM, průměr (mean)",93.09
same,"MTT, value relative to 0 μM = 100","[4]; MCF-7, 5 000 b/j, koncentrace 30 μM, single experiment (by date)",93.8264 and 93.1628 and 90.8333 and 94.5401
same,"MTT, value relative to 0 μM = 100","[4]; MCF-7, 5 000 b/j, koncentrace 100 μM, průměr (mean)",68.42
same,"MTT, value relative to 0 μM = 100","[4]; MCF-7, 5 000 b/j, koncentrace 100 μM, single experiment (by date)",56.52 and 67.9071 and 73.7709 and 75.4946
same,"MTT, value relative to 0 μM = 100","[4]; MCF-7, 5 000 b/j, koncentrace 300 μM, průměr (mean)",29.85
same,"MTT, value relative to 0 μM = 100","[4]; MCF-7, 5 000 b/j, koncentrace 300 μM, single experiment (by date)",23.6355 and 38.2595 and 25.5292 and 31.9956
same,"MTT, value relative to 0 μM = 100","[4]; MCF-7, 5 000 b/j, koncentrace 1000 μM, průměr (mean)",13.67
same,"MTT, value relative to 0 μM = 100","[4]; MCF-7, 5 000 b/j, koncentrace 1000 μM, single experiment (by date)",18.442 and 16.1441 and 10.4709 and 9.64
